Like-named read-outs stand apart in the source and are kept apart here.
Assays:
[1] = background statement; cited from earlier work
[2] = test system: Petunia flower; assay: Petunia cut flower vase life after ethylene; format: in vivo
Description: Each kind of the model plants was exposed to different concentrations of CPAS in an aqueous solution for 6-18 h as a pre-treatment following exposure for 24 h to different concentration of ethylene. In the case of banana and avocado fruits, the peel was brushed with different concentrations of CPAS aqueous solution, in the presence of commercially available Tween 20 surfactant (0.025%) as pre-ethylene treatment, and the delay in days elapsed until color breakdown (from green to yellow in banana—Table 1, FIG. 4; and from green to black in avocado—Table 1, FIG. 6) over air control was recorded as a criterion of the efficiency of the ethylene antagonist. In the case of peach fruit, the surfactant BAS 70 (generously supplied by BASF, Germany) was used. The results were recorded after incubation of 2-4 days in controlled conditions (Table 1, FIG. 11). When using cut flower models (FIGS. 1-3) CPAS aqueous solutions±surfactants was applied by loading either the cut flower or the isolated petals for 18 h in CPAS aqueous solutions prior to ethylene treatment. The number of days of the delay of senescence of the tested plant materials over water control was recorded, by following the visual wilting of the flowers. […] CPAS in aqueous solution, was either pre-treated by direct loading of the treatment solutions into the proximal side of the explant for 17 h, or by dipping the whole explant in the tested solutions for 30 to 60 sec in the presence of commercially available Tween 20 TM surfactant (0.025%. In all cases, a significant delaying action of ethylene-induced responses, was recorded in all the plant systems examined (Table 1, FIG. 7). In further examples, the concentrations of the CPAS aqueous solutions were used in the range of the results obtained in the above experiment. […]

[3] = test system: Citrus leaf explants; assay: Abscission of citrus leaf explants; format: in vivo; conditions: for Minimum apparent concentration / Protection time (days over control): Citrus leaf abscission, ethylene treatment +
Description: (§1) Each kind of the model plants was exposed to different concentrations of CPAS in an aqueous solution for 6-18 h as a pre-treatment following exposure for 24 h to different concentration of ethylene. In the case of banana and avocado fruits, the peel was brushed with different concentrations of CPAS aqueous solution, in the presence of commercially available Tween 20 surfactant (0.025%) as pre-ethylene treatment, and the delay in days elapsed until color breakdown (from green to yellow in banana—Table 1, FIG. 4; and from green to black in avocado—Table 1, FIG. 6) over air control was recorded as a criterion of the efficiency of the ethylene antagonist. In the case of peach fruit, the surfactant BAS 70 (generously supplied by BASF, Germany) was used. The results were recorded after incubation of 2-4 days in controlled conditions (Table 1, FIG. 11). When using cut flower models (FIGS. 1-3) CPAS aqueous solutions±surfactants was applied by loading either the cut flower or the isolated petals for 18 h in CPAS aqueous solutions prior to ethylene treatment. The number of days of the delay of senescence of the tested plant materials over water control was recorded, by following the visual wilting of the flowers. Tomato seedlings were sprayed with CPAS aqueous solutions in the presence of commercial available ‘Kinetic’ organo-silicone surfactant blend, kept for calibration in a growth chamber for 8-10 hr before spraying with CPAS solution or before loading CPSA by excised seedlings via their lower stem cut surface (Table 1, FIG. 10) in order to antagonize ethylene-induced epinasty of leaf petioles (Table 1, FIGS. 8-9). In the case of citrus leaf explants, abscission was tested at the laminar abscission zone. CPAS in aqueous solution, was either pre-treated by direct loading of the treatment solutions into the proximal side of the explant for 17 h, or by dipping the whole explant in the tested solutions for 30 to 60 sec in the presence of commercially available Tween 20 TM surfactant (0.025%. In all cases, a significant delaying action of ethylene-induced responses, was recorded in all the plant systems examined (Table 1, FIG. 7). In further examples, the concentrations of the CPAS aqueous solutions were used in the range of the results obtained in the above experiment.
The application of water soluble CPAS to citrus leaf explants was studied under air, antagonizing endogenous ethylene-induced abscission, comparing two methods of applications; either by dipping their petiole cut surfaces for 6 h in CPAS aqueous solution, or by dipping the whole explants for 30 sec. in the same treatment solution plus or minus a surfactant. In this experiment Tween-20 (0.025%) was chosen as surfactant, but any un-ionic surfactant may be chosen. The experiment indicates, as expected, that surfactants improve the penetration into plant tissues. However, if application is preferred via a cut surface like with cut flowers, there is no need to add a surfactant to the treatment solution (FIG. 7).
FIG. 7 represents a set of three figures, wherein explants are loaded with CPAS by dipping their petiole cut surfaces for 6 h in CPAS aqueous solution (A); dipped for 30 sec. in the same treatment solution (B); and treated as in B, but including Tween-20 [0.025%] (C).

[4] = test system: Peach fruit; assay: Peach fruit firmness / shelf life after spraying; format: in vivo
Description: Each kind of the model plants was exposed to different concentrations of CPAS in an aqueous solution for 6-18 h as a pre-treatment following exposure for 24 h to different concentration of ethylene. In the case of banana and avocado fruits, the peel was brushed with different concentrations of CPAS aqueous solution, in the presence of commercially available Tween 20 surfactant (0.025%) as pre-ethylene treatment, and the delay in days elapsed until color breakdown (from green to yellow in banana—Table 1, FIG. 4; and from green to black in avocado—Table 1, FIG. 6) over air control was recorded as a criterion of the efficiency of the ethylene antagonist. In the case of peach fruit, the surfactant BAS 70 (generously supplied by BASF, Germany) was used. The results were recorded after incubation of 2-4 days in controlled conditions (Table 1, FIG. 11). […] The number of days of the delay of senescence of the tested plant materials over water control was recorded, by following the visual wilting of the flowers. […] CPAS in aqueous solution, was either pre-treated by direct loading of the treatment solutions into the proximal side of the explant for 17 h, or by dipping the whole explant in the tested solutions for 30 to 60 sec in the presence of commercially available Tween 20 TM surfactant (0.025%. In all cases, a significant delaying action of ethylene-induced responses, was recorded in all the plant systems examined (Table 1, FIG. 7). In further examples, the concentrations of the CPAS aqueous solutions were used in the range of the results obtained in the above experiment.
Peach fruits were harvested and brought to the lab and immediately sprayed with different concentrations of CPAS solution (K-phosphate buffer, 20 mM, and 0.1% organo-silicone surfactant, namely BAS 90370S by BASF Germany), and kept at 22° C. and 90% humidity for up to 4 days. […] Firmness was recorded by a penetrometer (chatillon, using a disc of 8 mm diameter), after removing a 15 mm square peel strip in order to allow measuring the firmness directly on the flesh of the fruit.

[5] = test system: Carnation flower; assay: Carnation cut flower vase life; format: in vivo
Description: as §1
Carnation cut flowers treated by dipping cut surface for 18 hr in aqueous solution containing 8 μg mL^−1 of CPAS. Untreated flowers were held in water. After treatment all flowers are kept in water at 22° C. and 80% RH under continuous fluorescent light for assessment of their vase life. Photo was taken on day 14.

[6] = test system: Carnation flower petal; assay: Ethylene-induced senescence of isolated carnation petals; format: in vivo
Description: as §1
The following test was designed to further establish the ability of water soluble CPAS in aqueous solution to delay the ethylene-induced senescence of isolated carnation petals. The experiment was carried out in a growth chamber to ensure optimal environmental conditions (light, temperature and relative humidity). Carnation petals were loaded with CPAS by dipping their cut surface for 18 hr in aqueous solution containing 81 μg mL^−1 of CPAS. Untreated petals that were held in water. […]

[7] = Solubility and stability in water; format: physicochemical
[8] = test system: Banana fruit; assay: Ethylene-induced ripening of green banana fruit (peel color, firmness); format: in vivo
Description: as §1
Banana fruits were treated by brushing with aqueous solution of water soluble CPAS (200 μg mL^−1). After 18 hr all treated and untreated fruits were exposed to ethylene (300 μL^−1) to hasten ripening. All fruits were ventilated and held in air at 22° C. and 92% RH for assessment of their ripening value. Photos were taken on day 12 (untreated—FIG. 4A, treated FIG. 4B).
Additionally, banana fruits were treated by brushing with aqueous solution of CPAS ([…], and commercially available surfactant Tween 20 [0.025%]) and after 18 hr were exposed to ethylene (300 μL/L^−1) for 24 hr to hasten ripening. Fruits were kept at 24° C. and 92% RH. The fruits kept in air and treated by CPAS only served as comparative ones. Results were collected on day 7 (FIG. 5A).

[9] = test system: Avocado fruit; assay: Ethylene-induced ripening of 'Hass' avocado fruit (peel color, firmness, peduncle abscission); format: in vivo
Description: as §1
“Hass” avocado fruits with long peduncles were loaded with water soluble CPAS by dipping the peduncle cut surface for 30 hr in aqueous solution containing 100 μg/mL^−1 of CPAS. The untreated fruits with peduncles immersed in water. After the treatment with CPAS all fruits were exposed for 24 hr to the ethylene (250 μL L^−1). Afterwards the fruits were held at 24° C. and 92% RH for assessment their maturity parameters (peel color change and pulp firmness) and abscission of the peduncle. Photos were taken on day 5 after treatment (untreated—FIG. 6A, treated FIG. 6B).

[10] = test system: Tomato leaf petiole; assay: Ethylene-induced epinasty of tomato leaf petioles; format: in vivo; set-up: key to Protection (effect grade): + = weak effect; ++ = medium effect; +++ = strong effect; conditions: ethylene treatment +
Description: as §1
For the spraying experiment (FIG. 8) tomato plants from green house (3 weeks old) were brought for calibration in a growth chamber (8-10 hr, at 22° C. and 80% RH, under continuous fluorescent light). […]
In a second experiment the changes of the degree of the petiole from the branch, that expresses the epinastic response, was calculated (FIG. 9). […]

[11] = Petunia flower, vase life, loading, ethylene treatment +
[12] = Peach fruit, firmness, spraying, ethylene treatment −
[13] = Carnation flower, vase life, loading, ethylene treatment −
[14] = Carnation flower petal, senescence, loading, ethylene treatment +
[15] = Banana fruit, peel color, brushing, ethylene treatment +
[16] = Avocado fruit, peel color, loading, ethylene treatment +
[17] = avocado, 100 μg/mL loading via peduncle 30 hr, ethylene 250 μL L^−1 24 hr

Structure (SMILES): CC1=CC1 [1-MCP, 1-methylcyclopropene]
- Solubility in water [1]: insolubility in water

Structure (SMILES): O=C([O-])CCC1=CC1.[Na+] [CPAS, cyclopropyl-1-enyl-propanoic acid sodium salt]
- Minimum apparent concentration [2, 11]: 98 µg/mL
- Protection time (days over control) [2, 11]: 17 days
- Prolonging the vase-life of petunia cut flowers ([2]; summary statement): ≥ 14 days
- Minimum apparent concentration ([3]; dipping): 42 µg/mL
- Protection time (days over control) ([3]; dipping): 2 days
- Minimum apparent concentration ([3]; loading): 32 µg/mL
- Protection time (days over control) ([3]; loading): 7 days
- Delay of abscission of citrus leaf explants ([3]; summary statement): ≥ 7 days
- Minimum apparent concentration [4, 12]: 10 µg/mL
- Protection time (days over control) [4, 12]: 4 days
- Shelf life of climacteric fruit (peach) ([4]; spraying with surfactant, 22° C., up to 4 days): expand the shelf life
- Longevity of carnation cut flowers during vase life ([5]; 8 μg mL^−1 dipping cut surface 18 hr, day 14, vs untreated): longevity increase
- Minimum apparent concentration [5, 13]: 0.8 µg/mL
- Protection time (days over control) [5, 13]: 10 days
- Prolonging the vase-life of carnation cut flowers ([5]; summary statement): ≥ 14 days
- Ethylene antagonistic effect on petal senescence ([6]; 81 μg mL^−1 loading 18 hr, ethylene 5 μl L^−1 24 hr, measured after 6 days): highly significant
- Minimum apparent concentration [6, 14]: 81 µg/mL
- Protection time (days over control) [6, 14]: 11 days
- Toxic symptoms ([6]; carnation petals, 81 μg mL^−1 loading 18 hr): No toxic symptoms were observed
- Solubility in water [7]: soluble
- Stability in water [7]: stable in water
- Minimum apparent concentration [8, 15]: 200 µg/mL
- Protection time (days over control) [8, 15]: 6 days
- Delaying the decrease in fruit firmness ([8]; banana, 1000 μg mL^−1 brushing, ethylene 24 hr): ineffective
- Delay of color break of the fruit ([8]; banana, brushing, ethylene, effective at the higher concentrations): significantly delayed
- Delay of banana peel de-greening ([8]; summary statement): ≥ 12 days
- Minimum apparent concentration [9, 16]: 100 µg/mL
- Protection time (days over control) [9, 16]: 5 days
- Fruit softening [9, 17]: a little delaying effect
- Peduncle abscission [9, 17]: significantly delayed
- Skin color development [9, 17]: significantly delayed
- Delay of color change of 'Hass' avocado fruit ([9]; summary statement): ≥ 5 days
- Minimum apparent concentration ([10]; loading): 9 µg/mL
- Protection (effect grade) ([10]; loading): *+++
- Minimum apparent concentration ([10]; spraying): 160 µg/mL
- Protection (effect grade) ([10]; spraying): *+++
